“Also recorded” adds a separate entry of the source.
Experiments:
EBs containing MNs = assay: Neurite growth from embryoid bodies on 2D ECM-coated substrates; type: cell-based, mouse
Protocol: 4. Neurite Growth Measurements. After day 9 of differentiation, EBs were plated on either collagen I or Matrigel™ coated dishes in complete neural differentiation medium. […] Live samples were imaged on days 10-14 using an inverted fluorescent microscope for 2D cultures (IX81, Olympus) or a confocal microscope for 3D tissue rings (LSM710, Zeiss). The NeuronJ plug-in (ImageScience) for ImageJ was used to measure neurite growth distances (FIG. 17).
When allowed to adhere to natural ECM substrates such as collagen I13A and Matrigel™ (FIG. 13b and FIG. 19b), EBs containing MNs attached readily and extended neurites across the gels. Neurites grew 417.5±154.8 and 999.1+356.9 μm after 4 days of attachment (propagating at nearly linear rates of 88.6 and 264.8 μm day^−1) on collagen I and Matrigel™ surfaces, respectively (FIG. 13c). Similarly, EBs adhered to (and extended neurites across) the surface of 2D layers of differentiated C2C12s (FIG. 13d and FIG. 19c). After 5 days of co-culture, we identified clusters of post-synaptic acetylcholine receptors (visualized with fluorescently-conjugated α-BTX, which binds to a subunit of AChR) near the termination of neurite extensions on myotubes (FIG. 13e).

[1] = tested on: MNs in multi-layered tissue rings; assay: Chemical stimulation of motor neurons in multi-layered tissue rings (muscle contraction tracked by video); type: cell-based, mouse; conditions: for effect on glutamate-induced muscle contractions: 25 μM curare added after glutamate stimulation; for frequency of muscle twitching / average displacement: day 9 after co-culture
Protocol: To stimulate motor neurons in tissue rings, glutamate was added to cell culture medium in a bath application of either 200 μM or 400 μM, as noted. Tissues were then transferred to fresh medium. After chemical stimulation, the nicotinic AChR antagonist curare was added to cell culture medium in a bath application of 25 μM. Tissues were then rinsed in PBS and transferred to fresh medium.
Muscle contraction within tissue rings was captured using a digital camera on a stereomicroscope with a capture rate of 5-10 frames s^−1. Image sequences were exported to .avi files. A custom Matlab script was used to calculate x-y displacement of user-specified regions of interest using normalized 2D cross-correlation, as described previously^3.
On day 9 after co-culture, we chemically stimulated MNs by adding glutamate. Multi-layered tissue rings were first subjected to a bath application of 200 μM glutamate in complete neural differentiation medium. Through video recordings, we observed that local muscle contraction began in response to chemical stimulation of MNs (FIG. 16d). When we increased the glutamate concentration from 200 to 400 μM, the frequency of muscle twitching increased from 1.08 to 1.33 contractions sec^−1, while the average displacement decreased from 6.3±0 to 4.4±0.2 μm per twitch (FIG. 16e).

## collagen I: natural ECM substrate; collagen I-coated dishes from Gibco
EBs containing MNs; EBs attached to the coated surface, over 4 days
  rate of neurite propagation (nearly linear): 88.6 μm day^−1
EBs containing MNs; after 4 days of attachment of EBs to the coated surface
  neurite growth: 417.5±154.8 μm

## (+)-tubocurarine chloride hydrochloride pentahydrate [curare]
[1]; 25 μM curare (FIG. 16e)
  frequency of contraction after addition: 0 observed contractions
[1]
  effect on glutamate-induced muscle contractions: halted the contractions; also recorded: terminated the contractions
[1]; listed as tubocurarine chloride (curare)
  effect on glutamate-induced muscle contractions: halted the contractions

## N[C@@H](CCC(=O)O)C(=O)O [glutamate, L-glutamic acid]
[1]; 200 μM glutamate (FIG. 16e, mean values)
  frequency of contraction: 1.08 contractions/s
[1]; 200 μM glutamate bath application
  frequency of muscle twitching: 1.08 contractions sec^−1
[1]; 200 μM glutamate
  average displacement: 6.3±0 μm per twitch
[1]; 400 μM glutamate (FIG. 16e, mean values)
  frequency of contraction: 1.33 contractions/s
[1]; 400 μM glutamate bath application
  frequency of muscle twitching: 1.33 contractions sec^−1
[1]; 400 μM glutamate
  average displacement: 4.4±0.2 μm per twitch
[1]; chemical stimulation of MNs, 200 and 400 μM glutamate
  dependence of contraction frequency on concentration: frequency of contraction increasing with glutamate concentration

Source: patent US10906169B1, “Muscle-powered biological machines” (The Board of Trustees of the University of Illinois, priority 2016, dated 2021)
